Experimental data: patent publication US11299475B2, “Prostacyclin receptor agonist” (MEDSHINE DISCOVERY INC., priority 2018, dated 2022)

Target: T1, PGI2 receptor (Homo sapiens, UniProt P43119)
T1 construct: host or cells: thawed 'PGI2 cell' suspension
Experiment: PGI2 cAMP cell assay in vitro (HTRF cAMP)
Assay type: cell-based
Conditions: cells in vitro
Protocol: PGI2 cAMP Cell Assay In Vitro:
A series of cells were placed in a 37° C. water bath for rapid thawing, and the cell suspension was transferred to a 15 mL centrifuge tube containing 10 mL HBSS, and mixed uniformly. The cells were centrifuged at 1000 rpm for 5 minutes at room temperature. The supernatant was removed after centrifugation.
The centrifuge tube was tapped gently to suspend the cells after centrifugation, then the cells were re-suspended with 10 mL HBSS (Hanks buffered saline solution) and mixed uniformly by pipetting up and down. The cells were counted by Vi-cell. The cells were centrifuged for the second time at 1000 rpm for 5 minutes. The cells were re-suspended by experimental buffer to reach a cell concentration of 1.5×10^5/mL.
The samples were diluted with the Bravo automated liquid handling platform to make the initial concentration of the sample reach 2 mM and 5-fold serial dilution at 10 points. The control sample was diluted with Bravo to make the initial concentration of the sample reach 2 mM and 5-fold serial dilution at 10 points.
50 nL DMSO or sample to be tested was transferred to PE384-well OptiPlate by Echo. The cell suspension was transferred to the testing plate by electric pipette, 10 μL cells/well. The testing plate was centrifuged at 1000 rpm […]. The testing plate was incubated at room temperature for 60 minutes. Two kinds of test reagents were added to the testing plate, 5 µL/well. The testing plate was centrifuged at 1000 rpm for 1 minute. The experimental plate was sealed with Top Seal-A film and incubated at room temperature for 60 minutes. TopSeal-A was removed and the value was read on EnVision.

T1 sequence (P43119 whole entry, species assumed): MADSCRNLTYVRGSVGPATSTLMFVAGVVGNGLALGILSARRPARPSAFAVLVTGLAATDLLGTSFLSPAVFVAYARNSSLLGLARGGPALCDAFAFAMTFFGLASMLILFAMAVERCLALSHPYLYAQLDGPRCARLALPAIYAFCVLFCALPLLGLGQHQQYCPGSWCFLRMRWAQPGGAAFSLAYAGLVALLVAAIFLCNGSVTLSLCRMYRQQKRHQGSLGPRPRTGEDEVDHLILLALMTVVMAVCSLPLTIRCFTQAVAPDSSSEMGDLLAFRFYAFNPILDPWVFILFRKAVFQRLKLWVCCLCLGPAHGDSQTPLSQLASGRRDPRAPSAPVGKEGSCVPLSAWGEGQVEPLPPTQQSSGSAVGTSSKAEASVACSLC

EC50 [nM] | SMILES
2.02 | O=C(O)COCC1CCN(c2cncc(N(c3ccccc3)c3ccc(Cl)cc3)n2)CC1 [Compound 1]
2990 | O=C(O)COCC1CCN(c2nccc(N(c3ccccc3)c3ccc(Cl)cc3)n2)CC1 [Compound 2]
2.09 | O=C(O)COCC1CCN(c2cncc(N(c3ccccc3)c3ccc(F)cc3)n2)CC1 [Compound 3]
2.99 | O=C(O)COCC1CCN(c2cncc(N(c3ccccc3)c3ccccc3)n2)CC1 [Compound 4]
3.74 | COc1ccc(N(c2ccccc2)c2cncc(N3CCC(COCC(=O)O)CC3)n2)cc1 [Compound 5]
3.55 | O=C(O)COCC1CCN(c2cncc(N(c3ccccc3)c3ccc(OC(F)(F)F)cc3)n2)CC1 [Compound 6]
2.12 | COc1cccc(N(c2ccccc2)c2cncc(N3CCC(COCC(=O)O)CC3)n2)c1 [Compound 7]
38 | O=C(O)COCC1CCN(c2cncc(N(c3ccccc3)c3cccc(OC(F)(F)F)c3)n2)CC1 [Compound 8]
12.8 | O=C(O)COCC1CCN(c2cncc(N(c3ccccc3)c3cccc(F)c3)n2)CC1 [Compound 9]
10.2 | O=C(O)COCC1CCN(c2cncc(N(c3ccccc3)c3ccc(F)c(F)c3)n2)CC1 [Compound 10]
123 | O=C(O)COCC1CCN(c2cncc(N(c3ccccc3)c3cc(F)cc(F)c3)n2)CC1 [Compound 11]
4.84 | O=C(O)COCC1CCN(c2cncc(N(c3ccccc3)c3cccc(Cl)c3)n2)CC1 [Compound 12]
4.17 | O=C(O)COCC1CCN(c2cncc(N(c3ccccc3)c3ccc(OC(F)F)cc3)n2)CC1 [Compound 13]
9.65 | O=C(O)COCC1CCN(c2cncc(N(c3ccccc3)c3cccc(OC(F)F)c3)n2)CC1 [Compound 14]
> 2000 | O=C(O)COCC1CCN(c2cccc(N(c3ccccc3)c3ccccc3)n2)CC1 [Compound 15]
23.5 | O=C(O)COCC1CCN(c2ccnc(N(c3ccccc3)c3ccccc3)n2)CC1 [Compound 16]
0.29 | O=C(O)COCC1(F)CCN(c2cncc(N(c3ccccc3)c3ccccc3)n2)CC1 [Compound 17]
79.9 | CS(=O)(=O)NC(=O)COCC1(F)CCN(c2cncc(N(c3ccccc3)c3ccccc3)n2)CC1 [Compound 18]
6.11 | CCOC(=O)COCC1(F)CCN(c2cncc(N(c3ccccc3)c3ccccc3)n2)CC1 [Compound 19]
1.65 | O=C(O)COCC1(F)CCN(c2cncc(N(c3ccccc3)c3ccc(OC(F)F)cc3)n2)CC1 [Compound 20]
3 | O=C(O)COCC1(F)CCN(c2cncc(N(c3ccccc3)c3cccc(OC(F)F)c3)n2)CC1 [Compound 21]
0.22 | O=C(O)COCC1(F)CCN(c2cncc(N(c3ccccc3)c3cccc(F)c3)n2)CC1 [Compound 22]
1.1 | COc1ccc(N(c2ccccc2)c2cncc(N3CCC(F)(COCC(=O)O)CC3)n2)cc1 [Compound 23]
0.41 | COc1cccc(N(c2ccccc2)c2cncc(N3CCC(F)(COCC(=O)O)CC3)n2)c1 [Compound 24]
0.8 | O=C(O)COCC1(F)CCN(c2cncc(N(c3ccccc3)c3ccc(Cl)cc3)n2)CC1 [Compound 25]
3.73 | O=C(O)COCC1(F)CCN(c2cncc(N(c3ccccc3)c3ccc(OC(F)(F)F)cc3)n2)CC1 [Compound 26]

EC50 [nM] | SMILES
6.74 | O=C(O)COCC1(F)CCN(c2cncc(N(c3cccc(F)c3)c3ccccn3)n2)CC1 [Compound 27]
2.17 | O=C(O)COCC1(F)CCN(c2cncc(N(c3cccc(Cl)c3)c3ccccn3)n2)CC1 [Compound 28]
4.19 | COc1cccc(N(c2ccc(F)cn2)c2cncc(N3CCC(F)(COCC(=O)O)CC3)n2)c1 [Compound 29]
3.26 | O=C(O)COCC1(F)CCN(c2cncc(N(c3ccccc3)c3ccccn3)n2)CC1 [Compound 30]
1.61 | O=C(O)COCC1(F)CCN(c2cncc(N(c3ccccc3)c3cccc(F)n3)n2)CC1 [Compound 31]
1.41 | O=C(O)COCC1(F)CCN(c2cncc(N(c3ccccc3)c3ccc(F)cn3)n2)CC1 [Compound 32]
118 | CS(=O)(=O)NC(=O)COCC1(F)CCN(c2cncc(N(c3ccccc3)c3ccc(F)cn3)n2)CC1 [Compound 33]
1.9 | COc1ccc(N(c2ccccc2)c2cncc(N3CCC(F)(COCC(=O)O)CC3)n2)nc1 [Compound 34]
0.43 | O=C(O)COCC1(F)CCN(c2cncc(N(c3ccccc3)c3ccc(F)cc3)n2)CC1 [Compound 35]
4.97 | CS(=O)(=O)NC(=O)COCC1(F)CCN(c2cncc(N(c3ccccc3)c3ccc(F)cc3)n2)CC1 [Compound 36]
34.2 | O=C(O)COCC1(F)CCN(c2cncc(N(c3ccccc3)C3CCCCC3)n2)CC1 [Compound 37]
459 | COc1ccc(N(c2ccc(Cl)cc2)c2cncc(N3CCC(F)(COCC(=O)O)CC3)n2)nc1 [Compound 38]
> 300 | O=C(O)COCC1(F)CCN(c2cncc(N(c3ccc(Cl)cc3)c3ccc(F)cn3)n2)CC1 [Compound 39]
3.2 | O=C(O)COCC1(F)CCN(c2cncc(N(c3ccc(F)cc3)c3ccccn3)n2)CC1 [Compound 40]
2.94 | O=C(O)COCC1(F)CCN(c2cncc(N(c3ccc(Cl)cc3)c3ccccn3)n2)CC1 [Compound 41]
2.63 | COc1ccc(N(c2ccccn2)c2cncc(N3CCC(F)(COCC(=O)O)CC3)n2)cc1 [Compound 42]
1.07 | O=C(O)COCC1(F)CCN(c2cncc(N(c3ccccc3)c3ccc(Cl)cn3)n2)CC1 [Compound 43]
1.98 | O=C(O)COCC1(F)CCN(c2cncc(N(c3ccccc3)c3cc(Cl)ccn3)n2)CC1 [Compound 44]
1.55 | Cc1ccc(N(c2ccccc2)c2cncc(N3CCC(F)(COCC(=O)O)CC3)n2)nc1 [Compound 45]
20.1 | O=C(O)COCC1(F)CCN(c2cncc(N(c3ccccc3)c3nccs3)n2)CC1 [Compound 46]
40.1 | O=C(O)COCC1CC=C(c2cncc(N(c3ccccc3)c3ccc(Cl)cc3)n2)CC1 (stereo not shown) [Compound 47]
18 | O=C(O)COC[C@H]1CC[C@@H](c2cncc(N(c3ccccc3)c3ccccc3)n2)CC1 [Compound 48a]
3.72 | O=C(O)COC[C@H]1CC[C@H](c2cncc(N(c3ccccc3)c3ccccc3)n2)CC1 [Compound 48b]
81 | O=C(O)COCC1(F)CCN(c2cncc(C(O)(c3ccccc3)c3ccccc3)n2)CC1 [Compound 49]
5.36 | O=C(O)COCC1(F)CCN(c2cncc(C(c3ccccc3)c3ccccc3)n2)CC1 [Compound 50]
322 | COC(c1ccccc1)(c1ccccc1)c1cncc(N2CCC(F)(COCC(=O)O)CC2)n1 [Compound 51]
